Source: article PMC8709788, “Mandipropamid as a chemical inducer of proximity for in vivo applications” (Nature Chemical Biology, 2021)

Assays:
[1] = biological target: T1, PYL / ABI (ABA CIP system) (Arabidopsis thaliana, UniProt Q8VZS8); assay: Gal4BD/VP16 induced-proximity luciferase expression assay; type: cell-based; settings: COS-7 cells, […] h incubation; induced dimerization of PYL with ABI; text says ABA, legend of Fig. 2e names ABA and also ABA-AM
T1 construct: gene PYL1; TOM20-PYL and eGFP-ABI fusions for imaging; with Protein phosphatase 2C 56
T1 sequence (Q8VZS8 33-209 limits assumed): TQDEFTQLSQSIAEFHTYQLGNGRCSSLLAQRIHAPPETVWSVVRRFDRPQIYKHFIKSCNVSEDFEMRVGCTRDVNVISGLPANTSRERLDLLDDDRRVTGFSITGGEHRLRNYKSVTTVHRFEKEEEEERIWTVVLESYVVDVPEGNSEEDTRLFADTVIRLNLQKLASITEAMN
T1 sequence (P49597 126-423 partner limits assumed): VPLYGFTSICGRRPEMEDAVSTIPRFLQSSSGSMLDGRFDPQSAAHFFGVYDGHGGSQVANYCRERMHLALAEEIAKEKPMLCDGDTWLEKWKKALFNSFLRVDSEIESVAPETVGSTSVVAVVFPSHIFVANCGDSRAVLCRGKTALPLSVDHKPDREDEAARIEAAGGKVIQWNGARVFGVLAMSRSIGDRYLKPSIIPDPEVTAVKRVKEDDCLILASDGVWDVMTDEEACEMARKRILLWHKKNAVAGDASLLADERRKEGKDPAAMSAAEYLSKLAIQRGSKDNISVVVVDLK

[2] = biological target: T2, FKBP12 / FRB (rapamycin CIP system) (Homo sapiens, UniProt P42345+P62942); assay: RSICS fluorescence cross-correlation in living cells; type: cell-based; settings: COS-7 cells, 15 min, ternary complex FKBP12-rapamycin-FRB
T2 construct: gene FKBP1A
T2 sequence (P62942 2-108): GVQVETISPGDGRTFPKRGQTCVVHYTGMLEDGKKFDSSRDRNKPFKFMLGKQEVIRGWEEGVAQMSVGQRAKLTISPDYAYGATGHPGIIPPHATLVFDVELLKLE
T2 sequence (P42345 2021-2113 limits assumed): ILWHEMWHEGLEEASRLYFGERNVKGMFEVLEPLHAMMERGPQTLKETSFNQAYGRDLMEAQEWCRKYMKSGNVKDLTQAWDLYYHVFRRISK

Row | EC50 [1] | binding efficiency (interacting fraction) at 500 nM [2] | Compound
1 | 30.8 ± 15.5 µM |  | (+)-abscisic acid [compound 3]
2 |  | 71 ± 3% | CO[C@H]1C[C@@H]2CC[C@@H](C)[C@@](O)(O2)C(=O)C(=O)N2CCCC[C@H]2C(=O)O[C@H]([C@H](C)C[C@@H]2CC[C@@H](O)[C@H](OC)C2)CC(=O)[C@H](C)/C=C(\C)[C@@H](O)[C@@H](OC)C(=O)[C@H](C)C[C@H](C)/C=C/C=C/C=C/1C [compound 5, rapamycin]
